ChEMBL document CHEMBL1151088 (1996)
In brackets after ≈: the same amount, converted by molar mass.

Key:
Assay type in all cases: functional
Staphylococcus aureus [1] = assay: In vitro antimicrobial activity against methicillin resistant Staphylococcus aureus 1131.
[2] = tested on: Staphylococcus epidermidis; assay: In vitro antimicrobial activity against Staphylococcus epidermidis.
Staphylococcus aureus [3] = assay: In vitro antimicrobial activity against penicillin sensitive Staphylococcus aureus 663.
Staphylococcus aureus [4] = assay: In vitro antimicrobial activity against penicillin resistant Staphylococcus aureus 853.
Escherichia coli = assay: In vitro antimicrobial activity against Escherichia coli 182+PMBN.
Saccharomyces cerevisiae = assay: In vitro antimicrobial activity against Saccharomyces cerevisiae.
Candida albicans = assay: In vitro antimicrobial activity against Candida albicans.
Acholeplasma laidlawii = assay: In vitro antimicrobial activity against Acholeplasma laidlawii.
Bacillus cereus = assay: In vitro antimicrobial activity against Bacillus cereus.

Row | SMILES | MIC (Staphylococcus aureus [1]) | MIC [2] | MIC (Staphylococcus aureus [3]) | MIC (Staphylococcus aureus [4]) | MIC (Escherichia coli) | MIC (Saccharomyces cerevisiae) | MIC (Candida albicans) | MIC (Acholeplasma laidlawii) | MIC (Bacillus cereus)
1 | CCCOc1c2cccc1Cc1cc3cc(c1OCCC)Cc1cccc(c1OCCC)Cc1cc(cc(c1OCCC)C2)C(=O)N[C@@H](C)C(=O)NCCN(C(=O)OC(C)(C)C)CCNC(=O)[C@H](C)NC3=O | 64 µg/mL (≈ 64.6 µM) | 32 µg/mL (≈ 32.3 µM) | 64 µg/mL (≈ 64.6 µM) | > 64 µg/mL | – | – | – | – | –
2 | CCCOc1c2cccc1Cc1cc3cc(c1OCCC)Cc1cccc(c1OCCC)Cc1cc(cc(c1OCCC)C2)C(=O)N[C@H](C)C(=O)NCCNCCNC(=O)[C@@H](C)NC3=O | 4 µg/mL (≈ 4.49 µM) | 8 µg/mL (≈ 8.99 µM) | 8 µg/mL (≈ 8.99 µM) | 8 µg/mL (≈ 8.99 µM) | – | – | – | – | –
3 | CCCOc1c2cccc1Cc1cc3cc(c1OCCC)Cc1cccc(c1OCCC)Cc1cc(cc(c1OCCC)C2)C(=O)N[C@@H](C)C(=O)NCCNCCNC(=O)[C@H](C)NC3=O | 4 µg/mL (≈ 4.49 µM) | 4 µg/mL (≈ 4.49 µM) | 8 µg/mL (≈ 8.99 µM) | 16 µg/mL (≈ 18 µM) | 32 µg/mL (≈ 35.9 µM) | > 128 µg/mL | > 128 µg/mL | > 128 µg/mL | 16 µg/mL (≈ 18 µM)
4 | CCCOc1c2cccc1Cc1cc3cc(c1OCCC)Cc1cccc(c1OCCC)Cc1cc(cc(c1OCCC)C2)C(=O)N[C@@H](C)C(=O)N[C@@H](C)C(=O)NCCNCCNC(=O)[C@H](C)NC(=O)[C@@H](C)NC3=O [VANCOMYCIN MIMIC] | 32 µg/mL (≈ 31 µM) | 32 µg/mL (≈ 31 µM) | 32 µg/mL (≈ 31 µM) | 32 µg/mL (≈ 31 µM) | – | – | – | – | –
5 | CN[C@H](CC(C)C)C(=O)N[C@H]1C(=O)N[C@@H](CC(N)=O)C(=O)N[C@H]2C(=O)N[C@H]3C(=O)N[C@H](C(=O)N[C@H](C(=O)O)c4cc(O)cc(O)c4-c4cc3ccc4O)[C@H](O)c3ccc(c(Cl)c3)Oc3cc2cc(c3O[C@@H]2O[C@H](CO)[C@@H](O)[C@H](O)[C@H]2O[C@H]2C[C@](C)(N)[C@H](O)[C@H](C)O2)Oc2ccc(cc2Cl)[C@H]1O [VANCOMYCIN] | – | – | – | – | – | > 128 µg/mL | > 128 µg/mL | > 128 µg/mL | 2 µg/mL (≈ 1.38 µM)
